Measurements from ChEMBL document CHEMBL1201862, “PubChem BioAssay data set” (2004).
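Exposure lasted 48 hours, with cells grown in 96-well plates and compounds tested at five concentrations. The concentration for 50% growth inhibition is given as GI50.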 Activity calls are given as the source filed them. Rule as the data show it: active = GI50 up to about 1.1 µM and inactive = higher.

Assays:
Assay in all cases: DTP human tumour cell line panel, 48 h
DMS-114 = system: DMS-114
M19-MEL = system: M19-MEL
KM-20L2 = system: KM-20L2
DMS-273 = system: DMS-273
HOP-18 = system: HOP-18
LXFL 529 = system: LXFL 529
SNB-78 = system: SNB-78
XF498 = system: XF498
RXF 631 = system: RXF 631

Compound | GI50 (DMS-114) | GI50 (M19-MEL) | GI50 (KM-20L2) | GI50 (DMS-273) | GI50 (HOP-18) | GI50 (LXFL 529) | GI50 (SNB-78) | GI50 (XF498) | GI50 (RXF 631)
O=S1(=O)CCN(c2ccccc2CC(c2c[nH]c3ccccc23)c2c[nH]c3ccccc23)CC1 | 5.3 µM (inactive) | 5.74 µM (inactive) | 8.85 µM (inactive) | 8.63 µM (inactive) | 14.4 µM (inactive) | 4.13 µM (inactive) | 30.1 µM (inactive) | – | –
Nc1ccn(C2OC(COC(=O)C34CC5CC(CC(C5)C3)C4)C(O)C2O)c(=O)n1 (stereo not given) | 12.4 µM (inactive) | > 100 µM (inactive) | > 100 µM (inactive) | > 100 µM (inactive) | > 100 µM (inactive) | – | > 100 µM (inactive) | – | –
Cc1ccc(OCC(=O)N2N=C(c3ccccc3)CC2(O)c2ccccc2)cc1 (stereo not given) | – | 44.6 µM (inactive) | 18 µM (inactive) | 20.8 µM (inactive) | – | 19.3 µM (inactive) | 22.1 µM (inactive) | > 100 µM (inactive) | 26.9 µM (inactive)
COC1=CC(=O)NCCN1 | > 100 µM (inactive) | > 100 µM (inactive) | > 100 µM (inactive) | 78.7 µM (inactive) | > 100 µM (inactive) | > 100 µM (inactive) | > 100 µM (inactive) | > 100 µM (inactive) | > 100 µM (inactive)
COc1ccc2nc3cccc(C(=O)NCCN(C)C)c3nc2c1 | 1.29 µM (inactive) | 1.64 µM (inactive) | 2.2 µM (inactive) | 1.44 µM (inactive) | 3.19 µM (inactive) | 1.26 µM (inactive) | 2.88 µM (inactive) | 0.292 µM (active) | 3.17 µM (inactive)
Cc1ccc(NC(=O)c2cc3cc(/N=N/c4ccc(Br)cc4)ccc3oc2=O)cc1 | 37 µM (inactive) | – | – | 41.8 µM (inactive) | < 0.01 µM (active) | – | > 100 µM (inactive) | > 100 µM (inactive) | –
O=C1C(=O)N(c2ccc(Cl)cc2Cl)C(=O)C(=O)C1c1nc2ccccc2s1 | > 72.4 µM (inactive) | > 100 µM (inactive) | > 100 µM (inactive) | > 100 µM (inactive) | > 100 µM (inactive) | 50.6 µM (inactive) | – | > 55 µM (inactive) | –
CN(C)C(=O)/N=c1\ss/c(=N\C(=S)N(C)C)n1-c1ccccc1 | 10.3 µM (inactive) | 31.9 µM (inactive) | 54 µM (inactive) | 0.125 µM (active) | > 10 µM (inactive) | 7.55 µM (inactive) | 65.8 µM (inactive) | 43.7 µM (inactive) | 36.1 µM (inactive)
N#Cc1ccccc1NC(=O)C(=O)C(C(=O)c1ccccc1-c1ccccc1)C1OC(=O)c2ccccc21 (stereo not given) | 15.5 µM (inactive) | 14.8 µM (inactive) | 20.9 µM (inactive) | – | – | – | 11.2 µM (inactive) | 16 µM (inactive) | –
N#Cc1nn(-c2ccc(Cl)cc2)c(=N)c2c(N)n3nc(-c4ccccc4)cc3nc12 | – | – | 1 µM (active) | 1 µM (active) | < 0.01 µM (active) | 0.705 µM (active) | 1 µM (active) | 41.4 µM (inactive) | –
COc1cc(/C=C2/C(=O)N(C(=O)OC(C)C)C(Cc3cc(OC)c(OC)c(C)c3OC)C(=O)N2Cc2ccccc2)c(OC)c(C)c1OC (stereo not given) | 13.6 µM (inactive) | 57 µM (inactive) | 24.8 µM (inactive) | 14 µM (inactive) | 49.5 µM (inactive) | 10.4 µM (inactive) | – | – | –
Cc1c(C)c2ccc3oc4ccccc4c3c2oc1=O | 86.7 µM (inactive) | > 100 µM (inactive) | > 100 µM (inactive) | – | > 100 µM (inactive) | > 100 µM (inactive) | > 100 µM (inactive) | – | > 100 µM (inactive)
COC(=O)c1ncc2c(=O)[nH]c3ccccc3c2c1C(=O)OC | > 100 µM (inactive) | > 100 µM (inactive) | > 100 µM (inactive) | > 100 µM (inactive) | > 100 µM (inactive) | > 100 µM (inactive) | > 100 µM (inactive) | > 100 µM (inactive) | > 100 µM (inactive)
C[n+]1c2ccccc2c(/C=N\NS(=O)(=O)c2ccc(Cl)cc2)c2ccccc21 | 28.3 µM (inactive) | 81.7 µM (inactive) | 42.4 µM (inactive) | 41.8 µM (inactive) | – | – | > 100 µM (inactive) | 27.3 µM (inactive) | –
CCOC(=O)NC(=O)c1cn(CCCOC(=O)CCCCCCCCC(=O)OCCCn2cc(C(=O)NC(=O)OCC)c(=O)[nH]c2=O)c(=O)[nH]c1=O | 6.65 µM (inactive) | 12.9 µM (inactive) | 34.5 µM (inactive) | 20.5 µM (inactive) | 29.1 µM (inactive) | 28 µM (inactive) | 8 µM (inactive) | 20.7 µM (inactive) | –
CC1(C)OC(=O)[C@@](C)([C@H](O)c2ccccc2)O1 | 56.8 µM (inactive) | > 100 µM (inactive) | > 100 µM (inactive) | > 100 µM (inactive) | – | > 100 µM (inactive) | > 100 µM (inactive) | > 100 µM (inactive) | 79.4 µM (inactive)
O=C(O)c1ccccc1C1c2ccc(Cl)cc2Oc2cc(Cl)ccc21 | > 100 µM (inactive) | > 100 µM (inactive) | > 100 µM (inactive) | > 100 µM (inactive) | > 100 µM (inactive) | > 100 µM (inactive) | – | – | > 100 µM (inactive)
CC(=O)Nc1ccc(-c2nnc(SCC(=O)Nc3cccc(C)c3)o2)cc1 | 2.34 µM (inactive) | 12.2 µM (inactive) | 10.2 µM (inactive) | 10.3 µM (inactive) | 16.1 µM (inactive) | 10.9 µM (inactive) | 13.7 µM (inactive) | – | –
CN(C)CC(/C(Cc1ccccc1)=N\NC(=O)C[n+]1ccccc1)c1ccccc1 (stereo not given) | > 100 µM (inactive) | > 100 µM (inactive) | > 100 µM (inactive) | 38.8 µM (inactive) | > 100 µM (inactive) | > 100 µM (inactive) | 53.2 µM (inactive) | > 100 µM (inactive) | > 100 µM (inactive)
CCOCN1COCN/C1=N/C#N | 71.4 µM (inactive) | – | > 100 µM (inactive) | > 100 µM (inactive) | > 100 µM (inactive) | > 100 µM (inactive) | > 100 µM (inactive) | > 100 µM (inactive) | > 100 µM (inactive)
COc1ccc2cc3c4cc(OC)c(OC)cc4ccn3c2c1 | > 100 µM (inactive) | > 100 µM (inactive) | – | > 100 µM (inactive) | > 100 µM (inactive) | > 100 µM (inactive) | > 100 µM (inactive) | > 100 µM (inactive) | –
CC(C)CCCC(C)[C@H]1CCC2[C@@H]3CCC4Nc5c(cnn5-c5ccccc5)C[C@]4(C)C3CC[C@@]21C (stereo not given in full) | 52.8 µM (inactive) | 26.1 µM (inactive) | 13.1 µM (inactive) | 2.72 µM (inactive) | > 100 µM (inactive) | 24.3 µM (inactive) | 18.7 µM (inactive) | 15.3 µM (inactive) | 13.1 µM (inactive)
CCC(=O)OC1CCn2c1nc1c2C(=O)C(C)=C(NC(C)=O)C1=O (stereo not given) | 0.425 µM (active) | 1.76 µM (inactive) | – | 1.79 µM (inactive) | – | 1.41 µM (inactive) | 1.79 µM (inactive) | – | –
COc1cccc(/C=C\c2cc(OC)c(OC)c(OC)c2)c1 | 1.48 µM (inactive) | 12.1 µM (inactive) | 0.37 µM (active) | 0.553 µM (active) | – | 2.49 µM (inactive) | 1.24 µM (inactive) | 2.8 µM (inactive) | 0.836 µM (active)
Cc1cc(C)c(C(=O)/C=C/c2ccccc2)c(C)c1 | 24.1 µM (inactive) | 28.5 µM (inactive) | 32.6 µM (inactive) | – | > 100 µM (inactive) | 31.6 µM (inactive) | – | 12.6 µM (inactive) | –
